From US5840721A, “Imidazole derivatives as MDR modulators” (Ontogen Corporation, priority 1997, dated 1998)

Tests used:
CEM/VLB1000 cell line [1] = experiment: [3H]VLB accumulation in CEM/VLB1000 cells; type: cell-based; conditions: Homo sapiens, midpoint of minimum and maximum increase in accumulation of 3H-vinblastine (275 nM), 3 hours at 37° C
Method: ^3 H-vinblastine accumulation was also measured in the CEM/VLB1000 cell line. Corning Easy-Wash 96 well plates were pretreated with PBS and 1% BSA for 60 minutes and then removed. CEM/VLB1000 cells were seeded at 2×10^5, 40 μL volume. Plates were incubated at 37° C. for 30-60 minutes prior to use. The reference reversing agent, verapamil, or the compound of the present invention was added to the well followed by addition of media containing ^3 H-vinblastine (final concentration=275nM). Plates were allowed to incubate for 3 hours at 37° C. Cells were harvested onto pretreated Wallace filtermats A (pretreated with 0.1% polyethyleneimine) using a TomTek harvester-96. After filtering, the filtermats were allowed to dry completely. Meltix B scintillant was then added to the filtermats. The filters were then placed in a 90° C. oven for approximately 3-5 minutes and then removed. Scintillant was allowed to solidify on the filtermats. Filtermats were then placed in sample bags and read on a Wallace BetaPlate scintillation counter. The effects of compounds of the present invention in the cytotoxicity potentiation assays and vinblastine (VLB) accumulation assay are given in the Table below:
^2 Values presented are the midpoint (EC50 ) of the minimum and
maximum increase in accumulation of ^3 Hvinblastine caused by the
specfic compound of the present invention.

CEM/VLB1000 cell line [2] = experiment: Cytotoxicity potentiation: enhancement of vinblastine cytotoxicity in MDR cell line (alamar blue); type: cell-based, human; conditions: Homo sapiens, midpoint of minimum and maximum cytotoxicity induced by 3-5 μg/mL vinblastine and compound, 48 hours incubation, alamar blue 24 hours, read-out: Cytotocicity Potentiation (EC50)

EC50 (CEM/VLB1000 cell line [1]) [nM]	SMILES	EC50 (CEM/VLB1000 cell line [2]) [nM]
2000	COC/C=C/c1ccc(-c2nc(-c3ccc(N(C)C)cc3)c(-c3ccc(N(C)C)cc3)[nH]2)cc1 [Example 74, 2-[4-(3-methoxy-trans-1-propen-1-yl)phenyl]-4,5-bis (4-N,N-dimnethylaminophenyl) imidazole]	130
1200	CCOC/C=C/c1ccc(-c2nc(-c3ccc(N(C)C)cc3)c(-c3ccc(N(C)C)cc3)[nH]2)cc1 [Example 75, 2-[4-(3-ethoxy-trans-1-propen-1-yl)phenyl]-4,5-bis (4-N,N-dimethylaminophenyl) imidazole]	98
1200	CN(C)c1ccc(-c2nc(-c3ccc(/C=C/COCc4ccccc4)cc3)[nH]c2-c2ccc(N(C)C)cc2)cc1 [Example 77, 2-[4-(3-benzyloxy-trans-1-propen-1-yl)phenyl]-4,5-bis (4-N,N-dimethylaminophenyl) imidazole]	340
1700	CN(C)C(=O)/C=C/c1ccc(-c2nc(-c3ccc(N(C)C)cc3)c(-c3ccc(N(C)C)cc3)[nH]2)cc1 [Example 111]	620
3900	CN(C)c1ccc(-c2nc(-c3ccc(/C=C/CO)cc3)[nH]c2-c2ccc(N(C)C)cc2)cc1 [Example 113, 2-[4-(3-hydroxy-trans-1-propen-1-yl)phenyl]-4,5-bis (4-N,N-dimethylaminophenyl) imidazole]	410
	CCOC/C=C/c1ccc(-c2nc(-c3ccc(NC(C)C)cc3)c(-c3ccc(F)cc3)[nH]2)cc1 [Example 121, 2-[4-(3-ethoxy-trans-1-propen-1-yl)phenyl]-4-(4-fluorophenyl)-5-(4-N-isopropylaminophenyl) imidazole]	120
	CCCN(CCC)c1ccc(-c2c[nH]c(-c3ccc(/C=C/COCC)cc3)n2)cc1 [Example 122, 2-[4-(3-ethoxy-trans-1-propen-1-yl)phenyl]-4-(4-N,N-dipropylphenyl) imidazole]	280
	CCOC/C=C/c1ccc(-c2nc(-c3ccc(NC(C)C)cc3)c[nH]2)cc1 [Example 123, 2-[4-(3-ethoxy-trans-1-propen-1-yl)phenyl]-4-(4-N-isopropylphenyl) imidazole]	340
	CCOC/C=C/c1ccc(-c2nc(-c3ccc(NCC(C)C)cc3)c[nH]2)cc1 [Example 124, 2-[4-(3-ethoxy-trans-1-propen-1-yl)phenyl]-4-(4-N-isobutylphenyl) imidazole]	250
	CCOC/C=C/c1ccc(-c2nc(-c3ccc(N4CCOCC4)cc3)c[nH]2)cc1 [Example 125, 2-[4-(3-ethoxy-trans-1-propen-1-yl)phenyl]-4-(4-N-morpholinophenyl) imidazole]	370
	CCOC/C=C/c1ccc(-c2nc(-c3ccc(N4CCN(CC)CC4)cc3)c[nH]2)cc1 [Example 126, 2-[4-(3-ethoxy-trans-1-propen-1-yl)phenyl]-4-[4-N-(N'-ethyl)piperizanophenyl) imidazole]	710
	CCOC/C=C/c1ccc(-c2nc(-c3ccc(N4CCOCC4)cc3)c(C)[nH]2)cc1 [Example 127, 2-[4-(3-ethoxy-trans-1-propen-1-yl)phenyl]-4-(4-N-morpholinophenyl)-5methyl-imidazole]	330
